Source: US9381182B2, “Anthranilic acid derivatives: novel inhibitors of advanced glycation end-products (AGEs) formation” (priority 2013, dated 2016)
Read-outs that look alike come from different tables or passages of the source.

Key:
[1] = target: T1, Human serum albumin (HSA) glycation by fructose (AGE-HSA) (Homo sapiens, UniProt P02768); test: In-vitro antiglycation activity against HSA glycation (fluorescence-based antiglycation assay); assay type: biochemical; conditions: for inhibition at 1000 µM: read-out: Antiglycation Activity % Inhibition
T1 construct: purchased Sigma Aldrich, St. Louis, Mo., USA
Experimental: Methodology: Human serum albumin (HSA) free from essential fatty acids and rutin were obtained from Sigma Aldrich, St. Louis, Mo., USA. D-fructose, sodium azide (NaN3) and dimethyl sulfoxide (DMSO) were acquired from Merck, Darmstadt, Germany. All solutions were prepared in sterile environment in deionized water at room temperature.
Assay Method: The assay was performed according the protocol of (Sattarahmady N, et al., 2007) with a little modification. […] Each sample solution (200 μL, final reaction volume) in triplicate loaded a 96-wll black fluorescence plate and was incubated for a week at 37° C. in an incubator.

[2] = MTT-based cytotoxicity assay; conditions: mouse, 3T3 mouse fibroblast cells, 3T3 cell-line, read-out: Cytotoxicity % Inhibition
Excerpt: Many studies have highlighted the contribution of AGEs in disease states and primarily investigated their deleterious effects and their possible mechanism of actions. Therefore, there is a need of synthesis and investigation of novel antiglycation agents, which are devoid of any adverse effects, may present a therapeutic approach for the delaying and treatment of premature aging and vascular abnormalities in diabetic patients. In the current study, we explored the novel antiglycation agents (1-18), which are potent inhibitors against the glycation process, and belong to anthranilic acid derivatives. The inhibitors were identified by using high throughput screening method, fluorescence-based antiglycation assay (see Table-1). The cytotoxicity studies were performed against mouse fibroblast cell-line (3T3 Cell-line) by employing MTT-based cytotoxicity assay. The mechanistic studies were also conducted to evaluate the effect of novel antiglycation inhibitors on AGEs-induced intracellular reactive oxygen species generation (ROS) and associated impaired proliferation in rat hepatocytes via dichlorofluorescin diacetate (DCFH-DA) and MTT-based cytotoxicity assay, respectively. Previously, these novel antiglycation inhibitors were known for anticancer and anti-inflammatory activities (Congiu C, et al., 2005).

[3] = tested on: rat hepatocytes (CC1-Cell line); test: Fructose-derived AGE-mediated intracellular ROS generation, DCFH-DA technique; assay type: cell-based; conditions: for Fluorescence (Average), ROS production: no test compound
Experimental: Methodology: DCFH-DA (Dichlorofluorescin diacetate), H2O2 (Hydrogen peroxide), DMSO (Dimethyl sulfoxide) and PBS (Phosphate buffer saline) were obtained from Sigma, St. Louis, Mo., USA. 96-well black fluorescence plates (Tissue culture treated) were purchased from Thermo Fisher Scientific, Waltham, Mass., USA.
Assay Method: Briefly, rat hepatocytes (CC1-Cell line, 6×10^4 cells/mL) were loaded on a black fluorescence 96-well tissue culture treated plate for 24 hours at 37° C. in an incubator, containing 5% CO2. The cells were serum starved for another 24 hours by adding serum free medium-MEM (minimum essential medium) prior to treatment with fructose-derived AGE and the test compounds, anthranilic acid derivatives. Initially the cells were treated with non fluorescent probe, DCFH-DA (10 μM) in the dark for 45 mins. Following incubation the cells were washed twice with 1×PBS and were treated with different concentrations of the AGEs, such as 0, 50, 100, and 200 μg/mL, to evaluate the AGEs influence on the generation of intracellular ROS in a concentration dependent manner. The cells were then treated with the test compounds (novel anthranilic acid derivatives) at various concentrations 24, 33, and 49 μM, co-incubated with the AGE (200 μg/mL) for 24 hours at 37° C. At the end of the incubation, just before 1 hour, the cells were incubated with H2O2 (0.5%) as a control.
Fluorescence Detection: The intensity of green fluorescence, which is emitted upon the oxidation of the probe in the presence of intracellular ROS, is measured at the excitation and emission wavelength of 490 nm and 520 nm, respectively, by Spectra Max Spectrophotometer, Applied Biosystems, CA, USA.
Where, • Test compound=anthranilic acid derivative • Blank=Untreated normal rat hepatocytes • Control=Hepatocytes treated with 0.5% H2O2

[4] = tested on: rat hepatocytes (CC1-Cell line); test: AGE-mediated reduced growth of rat hepatocytes, MTT assay; assay type: cell-based; conditions: for Absorbance (Average): 540 nm
Excerpt: Methodology: Normal, rat hepatocytes (CC1-Cell line) was purchased from ATCC, Manassas, Va., USA. MEM (Minimum Essential Medium) with L-glutamine, trypsin-EDTA, sodium bicarbonate and penicillin-streptomycin were obtained from Sigma, St. Louis, Mo., USA. 96-well tissue culture treated, sterile, round bottom plates were acquired from Thermo Fisher Scientific, Waltham, Mass., USA.
All the treatment with the AGEs and the test compound were done in SFM (serum free medium), and Triton X-100 treated hepatocytes were used as a blank, while untreated normal cells were used as a control.
Determination of Cellular Proliferation: At the end of the incubation, the sample solution was removed and MTT-dye ((2 mg/mL, 50 μL) was added to each well. The final reaction volume (200 μL) was reconstituted by MEM (serum free-Minimum essential media). The plate was incubated for 4 hours at 37° C. in 5% CO2 containing incubator. Following incubation, the serum free medium was removed and the crystals were dissolved by adding DMSO (100 μL) in each well.
Absorbance Detection: The absorbance of the colored solution was measured at 540 nm by Spectra Max Spectrophotometer, Applied Biosystems, CA, USA.
Where, • Test Compound=Novel anthranilic acid derivative • Blank=Hepatocytes treated with Triton X-100 • Control=Untreated normal rat hepatocytes

[5] = read-out: Antiglycation Activity IC50 ± SEM
[6] = compound 24 μM, co-incubated with AGEs 200 μg/mL, 24 hours
[7] = compound 33 μM, co-incubated with AGEs 200 μg/mL, 24 hours
[8] = compound 49 μM, co-incubated with AGEs 200 μg/mL, 24 hours

T1 sequence (P02768 25-609): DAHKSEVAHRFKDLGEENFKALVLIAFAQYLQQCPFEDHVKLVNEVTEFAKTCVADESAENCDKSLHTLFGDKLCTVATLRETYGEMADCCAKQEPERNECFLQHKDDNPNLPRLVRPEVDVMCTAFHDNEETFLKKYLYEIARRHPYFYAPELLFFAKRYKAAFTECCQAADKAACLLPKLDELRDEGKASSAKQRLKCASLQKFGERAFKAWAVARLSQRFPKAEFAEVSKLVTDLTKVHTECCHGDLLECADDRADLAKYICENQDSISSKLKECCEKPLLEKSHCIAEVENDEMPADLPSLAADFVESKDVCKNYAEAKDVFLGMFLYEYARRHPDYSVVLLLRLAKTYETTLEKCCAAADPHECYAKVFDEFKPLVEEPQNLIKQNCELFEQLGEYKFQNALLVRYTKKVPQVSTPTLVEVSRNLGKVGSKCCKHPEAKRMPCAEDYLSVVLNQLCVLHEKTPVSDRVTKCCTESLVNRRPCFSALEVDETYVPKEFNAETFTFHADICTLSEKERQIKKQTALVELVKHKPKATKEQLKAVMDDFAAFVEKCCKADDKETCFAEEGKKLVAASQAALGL

| Molecule | IC50 [1] [µM] | inhibition at 1000 µM [1] [%] | cytotoxicity [2] [%] | other results |
| --- | --- | --- | --- | --- |
| O=C(O)c1ccccc1Nc1cc(Cl)c([N+](=O)[O-])cc1Cl [Compound 14, 2-(2,5-Dichloro-4-nitroanilino)benzoic acid] | 84.8 ± 0.003 | 88.8 | 29.6 | – |
| O=C(O)c1ccccc1Nc1ccc(Cl)cc1 [Compound 5, 2-(4-Chloroanilino)benzoic acid] | 298 ± 0.015 | 62 | 41.3 | – |
| O=C(O)c1ccccc1Nc1cc([N+](=O)[O-])ccc1Cl [Compound 9, 2-(2-Chloro-5-nitroanilino)benzoic acid] | 314 ± 0.01 | 79.4 | 3 | – |
| O=C(O)c1ccccc1Nc1ccc(Cl)cc1[N+](=O)[O-] [Compound 2, 2-(4-Chloro-2-nitroanilino)benzoic acid] | 137 ± 0.002 | 82 | 5.6 | – |
| O=C(O)c1ccccc1Nc1cc(Cl)ccc1Cl [Compound 15, 2-(2,5-Dichloroanilino)benzoic acid] | 678 ± 0.047 | 62 | 1.6 | – |
| AGEs | – | – | – | Fluorescence (Average), ROS production ([3]; 50 μg/mL, 24 hours): 114.4; Fluorescence (Average), ROS production ([3]; 100 μg/mL, 24 hours): 135.3; Fluorescence (Average), ROS production ([3]; 200 μg/mL, 24 hours): 201.9 |
| O=C(O)c1ccccc1Nc1ccc(Cl)c(Cl)c1 [Compound 11, 2-(3,4-Dichloroanilino)benzoic acid] | 597 ± 0.021 | 62 | 40.1 | – |
| C[C@@H]1O[C@@H](OC[C@H]2O[C@@H](Oc3c(-c4ccc(O)c(O)c4)oc4cc(O)cc(O)c4c3=O)[C@H](O)[C@@H](O)[C@@H]2O)[C@H](O)[C@H](O)[C@H]1O [rutin, reference compound] | – | – | – | IC50 [1, 5]: 70 ± 0.5 µM |
| Cc1cc(C)cc(Nc2ccccc2C(=O)O)c1 [Compound 13, 2-(3,5-Dimethylanilino)benzoic acid] | 457 ± 0.019 | 65 | 4.8 | – |
| O=C(O)c1ccccc1Nc1cc(Cl)cc([N+](=O)[O-])c1 [Compound 7, 2-(3-Chloro-5-nitroanilino)benzoic acid] | 166 ± 0.017 | 84.4 | 13 | – |
| O=C(O)c1ccccc1Nc1ccccc1Cl [Compound 6, 2-(2-Chloroanilino)benzoic acid] | 426 ± 0.017 | 68 | 0.9 | – |
| O=C(O)c1ccccc1Nc1ccc(Cl)c([N+](=O)[O-])c1 [Compound 4, 2-(4-Chloro-3-nitroanilino)benzoic acid] | 266 ± 0.01 | 68.9 | 19.7 | – |
| COc1cccc(Nc2ccccc2C(=O)O)c1 [Compound 18, 2-(3-Methoxyanilino)benzoic acid] | 398 ± 0.007 | 71 | 7.1 | – |
| CCCCc1ccc(Nc2ccccc2C(=O)O)cc1 [Compound 12, 2-(4-Butylanilino)benzoic acid] | 407 ± 0.01 | 70 | 17.3 | – |
| Cc1ccc(Cl)cc1Nc1ccccc1C(=O)O [Compound 8, 2-(5-Chloro-2-methylanilino)benzoic acid] | 408 ± 0.03 | 69 | 3.2 | – |
| O=C(O)c1ccccc1Nc1cccc([N+](=O)[O-])c1 [Compound 16, 2-(3-Nitroanilino)benzoic acid] | – | 80 | 4.1 | IC50 [1, 5]: 264 ± 0.013 µM |
| O=C(O)c1ccccc1Nc1cc(Cl)ccc1[N+](=O)[O-] [Compound 17, 2-(5-Chloro-2-nitroanilino)benzoic acid] | 150 ± 0.001 | 78 | 1.5 | – |
| O=C(O)c1ccccc1Nc1ccc(F)cc1F [Compound 10, 2-(2,4-Difluoroanilino)benzoic acid] | 558 ± 0.066 | 63 | 1.1 | – |
| COc1cc(OC)c(Nc2ccccc2C(=O)O)cc1Cl [Compound 3, 2-(5-Chloro-2,4-dimethoxyanilino)benzoic acid] | 266 ± 0.016 | 75.1 | 22.4 | – |
| O=C(O)c1ccccc1Nc1ccc([N+](=O)[O-])cc1[N+](=O)[O-] [Compound 1, 2-(2,4-Dinitroanilino)benzoic acid] | – | 90 | 1.5 | IC50 [1, 5]: 67.2 ± 0.004 µM; inhibition at 24 µM ([4]; Rattus norvegicus, Hepatocyte, 24 h, compound 24 μM, co-incubated with AGEs 200 μg/mL, 24 hours, read-out: Percentage Inhibition (growth inhibition of hepatocytes)): 12%; inhibition at 33 µM ([4]; Rattus norvegicus, Hepatocyte, 24 h, compound 33 μM, co-incubated with AGEs 200 μg/mL, 24 hours, read-out: Percentage Inhibition (growth inhibition of hepatocytes)): 18.5%; inhibition at 49 µM ([4]; Rattus norvegicus, Hepatocyte, 24 h, compound 49 μM, co-incubated with AGEs 200 μg/mL, 24 hours, read-out: Percentage Inhibition (growth inhibition of hepatocytes)): 18.8%; Percentage Inhibition (growth inhibition of hepatocytes) ([4]; compound 24 μM, co-incubated with AGEs 200 μg/mL, 24 hours, 24 µM): 12.3%; Absorbance (Average) [4, 6]: 1.15; cytotoxic effect of the AGEs on the hepatocytes in presence of compound (in words) ([4]; compound 33 μM, AGEs 200 μg/mL): no cytotoxic effect; Absorbance (Average) [4, 7]: 1.09; reducing the toxic effects of the AGEs on the hepatocytes proliferation (in words) ([4]; compound 49 μM, AGEs 200 μg/mL): safe and effective; Absorbance (Average) [4, 8]: 1.08; inhibition at 24 µM ([3]; Rattus norvegicus, Hepatocyte, compound 24 μM, co-incubated with AGEs 200 μg/mL, 24 hours, read-out: Percentage Inhibition of AGE-induced intracellular ROS generation): 93.4%; inhibition at 33 µM ([3]; Rattus norvegicus, Hepatocyte, compound 33 μM, co-incubated with AGEs 200 μg/mL, 24 hours, read-out: Percentage Inhibition of AGE-induced intracellular ROS generation): 86.9%; inhibition at 49 µM ([3]; Rattus norvegicus, Hepatocyte, compound 49 μM, co-incubated with AGEs 200 μg/mL, 24 hours, read-out: Percentage Inhibition of AGE-induced intracellular ROS generation): 63.2%; Fluorescence (Average) [3, 6]: 90.6; Fluorescence (Average) [3, 7]: 101.2; inhibitory influence on the intracellular generation of ROS (in words) ([3]; compound 49 μM, AGE 200 μg/mL): moderate inhibitory influence; Fluorescence (Average) [3, 8]: 139.5 |
